Source: patent publication US20240382435A1, “NON-CERULOPLASMIN BOUND COPPER LEVEL MONITORING” (ORPHALAN S.A., priority 2021, published 2024)

Columns and labels:
[1] = tested on: patients with Wilson's Disease; experiment: Clinical Global Impression of Change (CGIC) rating scale, clinical study of Example 3; assay type: in vivo, human; set-up: key: 7-point ordinal CGIC scale, 4 = no change; settings: 7-point scale, ITT
Source text: The CGIC rating scale, a 7-point ordinal score, was summarized by visit and treatment arm, and compared between arms using a stratified Cochran-Mantel-Haenszel test. The UWDRS, a continuous measure, was summarized by visit and treatment arm with descriptive statistics for absolute values and the changes from baseline.

[2] = tested on: patients with Wilson's Disease; experiment: 24-hour urinary copper excretion (UCE), clinical study of Example 3; assay type: in vivo, human; settings: for 24-hour UCE value, mean / 24-hour UCE value, median / 24-hour UCE change from baseline, mean / 24-hour UCE change from baseline, median: ITT
Method: The number and the proportion of patients with a serum NCC value that matched the threshold (eg, serum NCC≤50 μg/L) were presented along with the 95% confidence interval of the proportion by visit and treatment arm. The proportions in the 2 arms were compared using Fisher's exact test. The same approach was applied on 24-hour UCE.

[3] = tested on: patients with Wilson's Disease; experiment: Baseline ALT, clinical study of Example 3
Source text: For change from baseline in laboratory measurements, “baseline” was defined as the last non-missing value during the Penicillamine Baseline Period, including unscheduled values.

[4] = tested on: patients with Wilson's Disease; experiment: Serum NCC by copper speciation assay, randomized open-label clinical study (Example 3); assay type: in vivo, human; settings: for serum NCC levels, comparison between arms: copper speciation assay, Table 4
Method: 1.95 mL of rhodium internal standard solution containing 1% TMAH/1% EDTA was combined with 50 μL of human serum in a 15 mL polypropylene tube, capped and rotary mixed for at least 30 minutes. The processed sample was then analysed by ICP-MS on an Agilent 7900x inductively coupled plasma mass spectrometer.
The samples were defrosted and equilibrated to room temperature prior to use, and vortex mixed for approximately 5 seconds. 80 μL of 50 mM Tris-HCl (pH 7.4) buffer solution was combined with 20 μL of the clinical sample, blank or reference standard in a 0.5 mL Eppendorf tube (protein low bind). The diluted sample (100 μL) was transferred to a 0.3 mL polypropylene LC vial and sealed with a screw cap. An aliquot (50 μL) of each processed sample was then analysed by LC-ICP-MS on an Agilent 8900x inductively coupled plasma mass spectrometer.
Speciation analysis of Cu-containing species in the serum samples was performed by an anion exchange high performance liquid chromatography (AE HPLC) column (GE Healthcare MonoQ 5/50 GL, stationary phase (10 μm; 5×50 mm)) with an ammonium acetate gradient (0-250 mM) for 20 min. A flow rate of 1.0 mL/min was used. The chromatographic separation was performed at 25° C. Detection of the eluting Cu species was achieved using a collision/reaction cell Agilent Technologies 8900x ICP-MS spectrometer. The isotopes 63Cu and 65Cu were monitored in time resolved mode analysis using an integration time of 0.3 sec. 63Cu is the most abundant isotope and therefore this isotope was used to quantify copper by LC-ICP-MS.
Efficacy was assessed and treatments were monitored primarily using total copper analysis and a copper speciation assay as outlined in Examples 1 and 2 to determine serum NCC levels.
Eligible patients were clinically stable with their standard of-care D penicillamine chelation therapy for at least 1 year. These patients entered a 12-Week Penicillamine Baseline Period (from study visits on Day 1 to Week 12). During this time, all patients continued their current D penicillamine regimen under study conditions. At the end of the Penicillamine Baseline Period, patients who fulfilled the protocol definition of being adequately controlled and tolerating D penicillamine were randomized in a 1:1 ratio to receive either TETA 4HCl or to continue to receive D penicillamine during a 24-Week Post-Randomization Period (from study visits Week 12 to Week 36).
The primary efficacy endpoint was the serum NCC concentration (in μg/L) at Week 36. Serum NCC concentrations were determined using a copper speciation serum NCC assay using the methodology outlined in Examples 1 and 2. The primary efficacy analysis utilized the serum NCC values from all study visits that were analyzed using a restricted maximum likelihood based general linear model for correlated data. The correlation due to repeated measures was modelled by specifying the variance covariance matrix.

[5] = Week 4, Penicillamine Baseline Period (all patients on D-penicillamine), 4 = no change
[6] = Week 4, Penicillamine Baseline Period (all patients on D-penicillamine)
[7] = Week 12, Penicillamine Baseline Period
[8] = Week 16, Post-Randomization Period
[9] = Week 24, Post-Randomization Period
[10] = Week 36, Post-Randomization Period
[11] = Day 1, 12-Week Penicillamine Baseline Period (all patients on D-penicillamine), by arm
[12] = Week 12 (randomization), end of Penicillamine Baseline Period
[13] = Week 16, 24-Week Post-Baseline Period
[14] = Week 24, 24-Week Post-Baseline Period
[15] = Week 36, 24-Week Post-Baseline Period
[16] = Day 1, 12-Week Penicillamine Baseline Period (all patients on D-penicillamine), ITT population, by arm
[17] = Week 4, Penicillamine Baseline Period (all patients on D-penicillamine), ITT
[18] = Week 8, Penicillamine Baseline Period (all patients on D-penicillamine), ITT
[19] = Week 12 (randomization), end of Penicillamine Baseline Period, ITT
[20] = Week 16, 24-Week Post-Randomization Period, ITT
[21] = Week 16, Post-Randomization Period, ITT
[22] = Week 20, Post-Randomization Period, ITT
[23] = Week 24, Post-Randomization Period, ITT
[24] = Week 28, Post-Randomization Period, ITT
[25] = Week 32, Post-Randomization Period, ITT
[26] = Week 36 (primary efficacy endpoint), Post-Randomization Period, ITT
[27] = Week 36, Post-Randomization Period, ITT

SMILES: CC(C)(S)[C@@H](N)C(=O)O [D-Penicillamine, D-penicillamine]
- Clinical Global Impression of Change Scale, mean [1, 5]: 4.1
- Clinical Global Impression of Change Scale, median [1, 6]: 4.0
- Clinical Global Impression of Change Scale, mean [1, 7]: 3.9
- Clinical Global Impression of Change Scale, median [1, 7]: 4.0
- Clinical Global Impression of Change Scale, mean [1, 8]: 4.1
- Clinical Global Impression of Change Scale, median [1, 8]: 4.0
- Clinical Global Impression of Change Scale, mean [1, 9]: 4.0
- Clinical Global Impression of Change Scale, median [1, 9]: 4.0
- Clinical Global Impression of Change Scale, mean [1, 10]: 4.0
- Clinical Global Impression of Change Scale, median [1, 10]: 4.0
- 24-hour UCE value, mean [2, 11]: 568.3 μg/24 hours
- 24-hour UCE value, median [2, 11]: 478.8 μg/24 hours
- 24-hour UCE value, mean [2, 6]: 551.5 μg/24 hours
- 24-hour UCE value, median [2, 6]: 594.6 μg/24 hours
- 24-hour UCE value, mean [2, 12]: 539.1 μg/24 hours
- 24-hour UCE value, median [2, 12]: 496.0 μg/24 hours
- 24-hour UCE change from baseline, mean [2, 13]: −26.8 μg/24 hours
- 24-hour UCE change from baseline, median [2, 13]: −60.3 μg/24 hours
- 24-hour UCE value, mean [2, 13]: 512.1 μg/24 hours
- 24-hour UCE value, median [2, 13]: 501.4 μg/24 hours
- 24-hour UCE change from baseline, mean [2, 14]: 37.9 μg/24 hours
- 24-hour UCE change from baseline, median [2, 14]: 23.4 μg/24 hours
- 24-hour UCE value, mean [2, 14]: 546.8 μg/24 hours
- 24-hour UCE value, median [2, 14]: 495.3 μg/24 hours
- 24-hour UCE change from baseline, mean [2, 15]: 4.9 μg/24 hours
- 24-hour UCE change from baseline, median [2, 15]: −4.7 μg/24 hours
- 24-hour UCE value, mean [2, 15]: 519.7 μg/24 hours
- 24-hour UCE value, median [2, 15]: 536.9 μg/24 hours
- 24-hour UCE, comparison between treatment arms ([2]; all time points analyzed after randomization, statistically significant differences): higher levels of copper excretion
- ALT, mean baseline ([3]; human, in vivo): 35.6 U/L
- serum NCC value, mean [4, 16]: 63.9 µg/L
- serum NCC value, median [4, 16]: 61.0 µg/L
- serum NCC value, mean [4, 17]: 59.4 µg/L
- serum NCC value, median [4, 17]: 58.4 µg/L
- serum NCC value, mean [4, 18]: 71.9 µg/L
- serum NCC value, median [4, 18]: 69.0 µg/L
- serum NCC value, mean [4, 19]: 84.4 µg/L
- serum NCC value, median [4, 19]: 83.0 µg/L
- serum NCC value, mean [4, 20]: 82.8 µg/L
- serum NCC change from baseline, mean [4, 21]: -2.1 µg/L
- serum NCC change from baseline, median [4, 21]: 0.0 µg/L
- serum NCC value, median [4, 21]: 77.5 µg/L
- serum NCC change from baseline, mean [4, 22]: -12.3 µg/L
- serum NCC change from baseline, median [4, 22]: -11.6 µg/L
- serum NCC value, mean [4, 22]: 73.3 µg/L
- serum NCC value, median [4, 22]: 75.5 µg/L
- serum NCC change from baseline, mean [4, 23]: -16.9 µg/L
- serum NCC change from baseline, median [4, 23]: -20.0 µg/L
- serum NCC value, mean [4, 23]: 66.3 µg/L
- serum NCC value, median [4, 23]: 64.0 µg/L
- serum NCC change from baseline, mean [4, 24]: -10.6 µg/L
- serum NCC change from baseline, median [4, 24]: -17.5 µg/L
- serum NCC value, mean [4, 24]: 73.1 µg/L
- serum NCC value, median [4, 24]: 65.1 µg/L
- serum NCC change from baseline, mean [4, 25]: -19.1 µg/L
- serum NCC change from baseline, median [4, 25]: -21.7 µg/L
- serum NCC value, mean [4, 25]: 64.6 µg/L
- serum NCC value, median [4, 25]: 62.0 µg/L
- serum NCC value, mean [4, 26]: 53.4 µg/L
- serum NCC change from baseline, mean [4, 27]: -29.7 µg/L
- serum NCC change from baseline, median [4, 27]: -34.0 µg/L
- serum NCC value, median [4, 27]: 51.0 µg/L
- serum NCC levels, comparison between arms [4]: very similar

SMILES: Cl.Cl.Cl.Cl.NCCNCCNCCN [TETA 4HCl, trientine tetrahydrochloride]
- Clinical Global Impression of Change Scale, mean [1, 5]: 4.0
- Clinical Global Impression of Change Scale, median [1, 6]: 4.0
- Clinical Global Impression of Change Scale, mean [1, 7]: 4.0
- Clinical Global Impression of Change Scale, median [1, 7]: 4.0
- Clinical Global Impression of Change Scale, mean [1, 8]: 4
- Clinical Global Impression of Change Scale, median [1, 8]: 4.0
- Clinical Global Impression of Change Scale, mean [1, 9]: 4.0
- Clinical Global Impression of Change Scale, median [1, 9]: 4.0
- Clinical Global Impression of Change Scale, mean [1, 10]: 3.9
- Clinical Global Impression of Change Scale, median [1, 10]: 4.0
- 24-hour UCE value, mean [2, 11]: 550.8 μg/24 hours
- 24-hour UCE value, median [2, 11]: 546.6 μg/24 hours
- 24-hour UCE value, mean [2, 6]: 545.4 μg/24 hours
- 24-hour UCE value, median [2, 6]: 436.1 μg/24 hours
- 24-hour UCE value, mean [2, 12]: 535.1 μg/24 hours
- 24-hour UCE value, median [2, 12]: 590.4 μg/24 hours
- 24-hour UCE change from baseline, mean [2, 13]: −223 μg/24 hours
- 24-hour UCE change from baseline, median [2, 13]: −221 μg/24 hours
- 24-hour UCE value, mean [2, 13]: 316.4 μg/24 hours
- 24-hour UCE value, median [2, 13]: 265.6 μg/24 hours
- 24-hour UCE change from baseline, mean [2, 14]: −247 μg/24 hours
- 24-hour UCE change from baseline, median [2, 14]: −199 μg/24 hours
- 24-hour UCE value, mean [2, 14]: 295.7 μg/24 hours
- 24-hour UCE value, median [2, 14]: 257.8 μg/24 hours
- 24-hour UCE change from baseline, mean [2, 15]: −258 μg/24 hours
- 24-hour UCE change from baseline, median [2, 15]: −231 μg/24 hours
- 24-hour UCE value, mean [2, 15]: 289.4 μg/24 hours
- 24-hour UCE value, median [2, 15]: 234.8 μg/24 hours
- ALT, mean baseline ([3]; baseline (Penicillamine Baseline Period), by treatment arm): 34.7 U/L
- serum NCC value, mean [4, 16]: 60.7 µg/L
- serum NCC value, median [4, 16]: 58.2 µg/L
- serum NCC value, mean [4, 17]: 57.6 µg/L
- serum NCC value, median [4, 17]: 58.5 µg/L
- serum NCC value, mean [4, 18]: 70.0 µg/L
- serum NCC value, median [4, 18]: 61.5 µg/L
- serum NCC value, mean [4, 19]: 68.5 µg/L
- serum NCC value, median [4, 19]: 61.1 µg/L
- serum NCC value, mean [4, 20]: 78.0 µg/L
- serum NCC change from baseline, mean [4, 21]: 9.4 µg/L
- serum NCC change from baseline, median [4, 21]: 9.2 µg/L
- serum NCC value, median [4, 21]: 69.6 µg/L
- serum NCC change from baseline, mean [4, 22]: 8.2 µg/L
- serum NCC change from baseline, median [4, 22]: 4.1 µg/L
- serum NCC value, mean [4, 22]: 76.8 µg/L
- serum NCC value, median [4, 22]: 60.8 µg/L
- serum NCC change from baseline, mean [4, 23]: -0.4 µg/L
- serum NCC change from baseline, median [4, 23]: 3.0 µg/L
- serum NCC value, mean [4, 23]: 60.3 µg/L
- serum NCC value, median [4, 23]: 57.0 µg/L
- serum NCC change from baseline, mean [4, 24]: -0.8 µg/L
- serum NCC change from baseline, median [4, 24]: 0.0 µg/L
- serum NCC value, mean [4, 24]: 69.5 µg/L
- serum NCC value, median [4, 24]: 62.4 µg/L
- serum NCC change from baseline, mean [4, 25]: -4.6 µg/L
- serum NCC change from baseline, median [4, 25]: 0.7 µg/L
- serum NCC value, mean [4, 25]: 64.0 µg/L
- serum NCC value, median [4, 25]: 60.0 µg/L
- serum NCC value, mean [4, 26]: 57.6 µg/L
- serum NCC change from baseline, mean [4, 27]: -11.0 µg/L
- serum NCC change from baseline, median [4, 27]: -6.9 µg/L
- serum NCC value, median [4, 27]: 51.1 µg/L
- serum NCC levels, comparison between arms [4]: very similar
